According to PubChem BioAssay (NCI):
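Step 1: Grow cells in 96-well plates. Step 2: Expose to compound for 48 hours at 5 concentrations. Step 3: Interpolate endpoints linearly; if unreached, use highest concentration. TGI: total growth inhibition.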

Assays:
Assay in all cases: growth of human tumour cells (NCI), 48 h
A549 NSCLC = test system: A549 NSCLC
KM12 colon = test system: KM12 colon
NCI-H460 lung = test system: NCI-H460 lung
OVCAR-5 ovarian = test system: OVCAR-5 ovarian
SK-MEL-28 melanoma = test system: SK-MEL-28 melanoma
U251 CNS = test system: U251 CNS
UACC-257 melanoma = test system: UACC-257 melanoma
UACC-62 melanoma = test system: UACC-62 melanoma
BT-549 breast = test system: BT-549 breast
HCT-116 colon = test system: HCT-116 colon

Row | Structure (SMILES) | TGI (A549 NSCLC) | TGI (KM12 colon) | TGI (NCI-H460 lung) | TGI (OVCAR-5 ovarian) | TGI (SK-MEL-28 melanoma) | TGI (U251 CNS) | TGI (UACC-257 melanoma) | TGI (UACC-62 melanoma) | TGI (BT-549 breast) | TGI (HCT-116 colon)
1 | Cc1ccc(S(=O)(=O)N(CC(O)COc2ccccc2)c2ccc(F)cc2F)cc1 (stereo unspecified) | 26.9 µM | 68.1 µM | 33.7 µM | 34.1 µM | 29.7 µM | 27.5 µM | 33.3 µM | 31.9 µM |  | 
2 | O=c1cc(NCc2ccncc2)[nH]c(=O)[nH]1 | > 100 µM | > 100 µM | > 100 µM | > 100 µM | > 100 µM | > 100 µM | > 100 µM | > 100 µM | > 100 µM | > 100 µM
3 | COC(=O)CCCC(=O)NC1=C(NCc2ccccc2)C(=O)c2ccccc2C1=O | > 100 µM | > 100 µM | > 100 µM | > 100 µM | > 100 µM | > 100 µM | 89.7 µM | > 100 µM | 93.8 µM | > 100 µM
4 | CCN(CC)c1nc(N(C)C)c2ccccc2n1 | > 100 µM | > 100 µM | > 100 µM | > 100 µM | > 100 µM | > 100 µM | > 100 µM | 56.1 µM | > 100 µM | > 100 µM
5 | CC1OC2OC3C(OCC(O)C3O)OC(=O)[C@]34CCC(C)(C)CC3C3=CCC5[C@@]6(C)C[C@H](O)[C@H](OC7OC(CO)C(O)C(O)C7OC7OCC(OC(=O)CC(C)(O)CC(=O)OC1C(OC1OC(CO)C(O)C(O)C1O)C2O)C(O)C7O)[C@@](C)(CO)C6CC[C@@]5(C)[C@]3(C)CC4 (stereo partly specified) | 13.5 µM | 19.3 µM | 22.7 µM | 18.9 µM | 6.22 µM | 18.6 µM | 12.7 µM | 19.2 µM | 21.1 µM | 16.5 µM
6 | CCOC(=O)C(=O)C(=O)NN(C)C1=NCCN1 | > 100 µM | > 100 µM | > 100 µM | > 100 µM | > 100 µM | > 100 µM | > 100 µM | > 100 µM | > 100 µM | > 100 µM
7 | O=C(c1ccco1)N(C(=S)OC12CC3CC(CC(C3)C1)C2)c1ccccc1 | > 100 µM | > 100 µM | > 100 µM | > 100 µM | > 100 µM | 59.5 µM | > 100 µM | 73.4 µM | > 100 µM | 48.7 µM
8 | COC1(OC)c2no[n+]([O-])c2C(OC)(OC)c2c1no[n+]2[O-] | 82 µM | 24.2 µM | > 100 µM | 43.6 µM | 32.1 µM |  | 25 µM | 24.3 µM |  | 24.6 µM
9 | CC(C)C(=O)Oc1cc2c(=O)oc3c(OC(=O)C(C)C)c(OC(=O)C(C)C)cc4c(=O)oc(c1OC(=O)C(C)C)c2c34 | > 100 µM | > 100 µM | > 100 µM | > 100 µM | > 100 µM | > 100 µM | > 100 µM | > 100 µM | > 100 µM | > 100 µM
10 | COc1ccc(C(O)CC(O)(C(F)(F)F)C(F)(F)F)cc1 (stereo unspecified) | > 100 µM | > 100 µM | 60.6 µM | 83.9 µM | > 100 µM | > 100 µM | 51.8 µM | 87.4 µM |  | 38.1 µM
11 | C=C1C(=O)O[C@H]2[C@H]3O[C@@H](C[C@@H]12)[C@](C)(O)CC[C@@H]1O[C@@]1(C)CCC[C@H]3C | > 100 µM | 57.3 µM | 89 µM | > 100 µM | > 100 µM | 84.5 µM | 89.6 µM | 33.2 µM | 31.5 µM | 27.8 µM
12 | C(/Cc1ccc2c(c1)OCO2)=N\NC1=NCCCN1 | > 100 µM | > 100 µM | > 100 µM | > 100 µM | > 100 µM | > 100 µM | > 100 µM | > 100 µM | > 100 µM | > 100 µM
13 | CCCNc1ncnc2[nH]ncc12 | > 100 µM | > 100 µM | > 100 µM | > 100 µM | > 100 µM | > 100 µM | > 100 µM | > 100 µM | > 100 µM | > 100 µM
14 | Cc1ccc(/C(O)=C/c2nc3ccc([N+](=O)[O-])cc3nc2/C=C(\O)c2ccc(C)cc2)cc1 | > 100 µM | > 100 µM | > 100 µM | > 100 µM | > 100 µM | > 100 µM | > 100 µM | > 69.3 µM | > 100 µM | > 100 µM
15 | CC(=O)Nc1cc(Nc2cc(=O)[nH]c(=O)[nH]2)ccc1C | > 100 µM | > 100 µM | > 100 µM | > 100 µM | > 100 µM | > 100 µM | > 100 µM |  | > 100 µM | > 100 µM
16 | CC(C)(C)OC(=O)n1cc(C2CN(O)C(=O)C23CCC(=O)N3Cc2ccccc2)c2ccccc21 (stereo unspecified) | > 100 µM | > 100 µM | > 100 µM | > 100 µM |  | > 100 µM | > 100 µM | > 100 µM |  | > 100 µM
17 | O=C1CC(n2cccc2)c2c(Br)sc(Br)c21 (stereo unspecified) | 61.8 µM | 22.8 µM | 36.6 µM | 32.5 µM | 41.2 µM | 28.4 µM | 30.9 µM | 30.3 µM | 34.3 µM | 28.7 µM
18 | C=CC1CN2CCC1CC2C(O)c1ccnc2ccccc12 (stereo unspecified) | > 100 µM | > 100 µM | > 100 µM | > 100 µM | > 100 µM | > 100 µM | > 100 µM | > 100 µM | > 100 µM | > 100 µM
19 | CN(C)c1ccc(/C=C2\N=C(c3ccccc3)N(c3ccc4c(c3)Sc3cc(N5C(=O)/C(=C/c6ccc(N(C)C)cc6)N=C5c5ccccc5)ccc3N4)C2=O)cc1 | 52.2 µM | > 100 µM | 62.3 µM | 40.8 µM | > 100 µM | 29 µM | 38.2 µM | 33.7 µM | 66.6 µM | 67.6 µM
20 | CC(=O)OC1CC2C(=O)C(=O)C1(C)C2(C)C (stereo unspecified) | > 100 µM |  | > 100 µM | > 100 µM | > 100 µM | > 100 µM | > 100 µM | > 100 µM | > 100 µM | > 100 µM
21 | CC(C)OC1OC(CO)C(O)CC1n1cc(F)c(=O)[nH]c1=O (stereo unspecified) | > 100 µM | > 100 µM | > 100 µM | > 100 µM | > 100 µM | > 100 µM | > 100 µM | > 100 µM | > 100 µM | > 100 µM
